The values that follow come from ChEMBL document CHEMBL1126313, “Cysteine protease inhibition by azapeptide esters” (J Med Chem, 1992).

In this test the target is T1, Papain (Carica papaya) (UniProt P00784).
T1 sequence (whole entry): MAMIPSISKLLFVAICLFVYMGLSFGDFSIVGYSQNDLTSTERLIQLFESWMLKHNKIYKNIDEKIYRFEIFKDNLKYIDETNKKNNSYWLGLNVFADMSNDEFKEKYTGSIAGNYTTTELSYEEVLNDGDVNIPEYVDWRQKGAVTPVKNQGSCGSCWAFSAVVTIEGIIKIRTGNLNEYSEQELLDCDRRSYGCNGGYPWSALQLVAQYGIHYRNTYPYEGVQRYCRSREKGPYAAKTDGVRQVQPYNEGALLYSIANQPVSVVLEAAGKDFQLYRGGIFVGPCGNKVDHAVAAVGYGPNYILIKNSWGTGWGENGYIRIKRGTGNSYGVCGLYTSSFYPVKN
The test is described as follows: The compound was tested for Rate of Inhibition of Papain.

In the case of `CC(=O)N[C@@H](Cc1ccccc1)C(=O)NNC(=O)Oc1ccccc1`, the ki/Ki was over 11000 M⁻¹ s⁻¹.

Regarding `CC(=O)N[C@@H](Cc1ccccc1)C(=O)NN(C)C(=O)OCC(C)C`, the ki/Ki amounted to 0.02 M⁻¹ s⁻¹.

Take `COC(=O)NNC(=O)[C@H](Cc1ccccc1)NC(C)=O`: the ki/Ki came to 13 M⁻¹ s⁻¹.

`CC(=O)N[C@@H](Cc1ccccc1)C(=O)NNC(=O)OCC(C)C`: the ki/Ki was determined as 18 M⁻¹ s⁻¹.
